From patent publication US10683265B1, “Cannabidiol-3-sulfonic acid, preparation method and application thereof, and cannabidiol derivative” (Yantai Hemp Biotechnology Co., Ltd., priority 2019, dated 2020)
Values after ≈ are worked out from the molar mass of the structure shown. Read-outs that look alike come from different tables or passages of the source.

Key:
[1] = high-purity CBD, cited from earlier work
[2] = Solubility determining in water by HPLC (saturated solutions, external standard method); type: physicochemical; conditions: for solubility: thermodynamic from solid
Text: 1. Solubility Determining:
1) Instruments and reagents: Thermo Fisher UltiMate 3000 high performance liquid chromatography (Thermo, USA); chromatographic column (Phenomenex Gemini C18, 5μ, 250×4.6 mm); electronic balance (METTLER TOLEDO instruments (Shanghai) Co., Ltd.); cannabidiol (commercially available), cannabidiol-3-sulfonic acid (prepared in Embodiment 1) and sodium cannabidiol-3-sulfonate (prepared in Embodiment 3). chromatography acetonitrile (Merck, Germany); water was Milli-Q ultrapure water, the remaining reagents were analytically pure.
Three clean 10 mL penicillin bottles were taken, 6 mL of ultrapure water was added accurately in each of the penicillin bottles, and the weight was weighed accurately. Cannabidiol, cannabidiol-3-sulfonic acid and sodium cannabidiol-3-sulfonate were separately added at room temperature until ultrasonic treatment was performed for 10 min and the samples still could not be completely dissolved, to obtain saturated solutions of three compounds respectively; the solutions stood overnight at room temperature, and supernatants were taken as solutions of samples for test (supernatants of the cannabidiol-3-sulfonic acid and the sodium cannabidiol-3-sulfonate were diluted by appropriate times depending on the detection situation).
An appropriate amount of cannabidiol, cannabidiol-3-sulfonic acid and sodium cannabidiol-3-sulfonate were taken and were prepared into solutions with a concentration of 0.2 mg·mL^−1 as reference substance solutions by using 10% acetonitrile-0.5% acetic acid solution.
The samples were determined by high performance liquid chromatography (Appendix V D of Part II of Chinese Pharmacopoeia).
Chromatographic conditions and system suitability Octadecylsilane bonded silica was used as a filler; 10% acetonitrile—0.5% acetic acid→75% acetonitrile—0.5% acetic acid were used as mobile phases; the wavelength was detected to be 225 nm; and the theoretical plate numbers were not less than 4,000 on a basis of cannabidiol, cannabidiol-3-sulfonic acid and sodium cannabidiol-3-sulfonate.
A measurement method includes: precisely measuring and injecting 20 μL of solution of sample for test into a liquid chromatograph, and recording a chromatogram; and taking a reference substance solution and measuring the reference substance solution according to the same method. The concentrations of the three compounds in the solution of sample for test were calculated by an external standard method according to a peak area.

[3] = in water, room temperature, saturated solution stood overnight, supernatant measured by HPLC, read-out: Solubility

SMILES	Solubility in organic solvents (in words) ([1]; ethanol, methanol, ether, benzene, chloroform, petroleum ether and other organic solvents)	Solubility in water or 10% sodium hydroxide solution (in words) ([1]; water or 10% sodium hydroxide solution)	Solubility in water (in words) ([2]; in water at room temperature)	solubility [2, 3] [mg/mL]	solubility ([2]; water) [mg/mL]
C=C(C)[C@@H]1CCC(C)=C[C@H]1c1c(O)cc(CCCCC)cc1O [Cannabidiol, 2-[(1R,6R)-3-methyl-6-(1-methylvinyl)-2-cyclohexen-1-yl]-5-pentyl-1,3-benzenediol]	soluble	almost insoluble	slightly soluble	0.41 (≈ 1.3 mM)	
C=C(C)[C@@H]1CCC(C)=C[C@H]1c1c(O)cc(CCCCC)c(S(=O)(=O)O)c1O [Cannabidiol-3-sulfonic acid, (1′R,2′R)-2,6-dihydroxy-5′-methyl-4-pentyl-2″-(propyl-1-en-2-yl)-1″,2′,3′,4′-tetrahydro-[1,1′-biphenyl]-3-sulfonic acid]					56.2 (≈ 142 mM)
C=C(C)[C@@H]1CCC(C)=C[C@H]1c1c(O)cc(CCCCC)c(S(=O)(=O)[O-])c1O.[Na+] [Sodium cannabidiol-3-sulfonate, sodium cannabidiol-3-sulfonate]				486	
